Tests used:
Type in all cases: in vivo
[1] = test system: sedge, umbrella (small-flower umbrella sedge, Cyperus difformis); assay: Test B flooded paddy test, plant response rating; settings: 250 g ai/ha; Flood; scale of 0 to 100 where 0 is no effect and 100 is complete control; 13 to 15 days
In short: (§1)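 Compound was added to standing water 3 cm above soil, flood maintained, and plants held in a greenhouse before visual scoring against controls at 13 to 15 days.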

[2] = test system: barnyardgrass (Echinochloa crus-galli); assay: Test B flooded paddy test, plant response rating; settings: 250 g ai/ha; Flood; scale of 0 to 100 where 0 is no effect and 100 is complete control; 13 to 15 days
In short: as §1

[3] = test system: rice (Oryza sativa); assay: Test B flooded paddy test, plant response rating; settings: 250 g ai/ha; Flood; scale of 0 to 100 where 0 is no effect and 100 is complete control; 13 to 15 days
In short: as §1

[4] = test system: ducksalad (Heteranthera limosa); assay: Test B flooded paddy test, plant response rating; settings: 250 g ai/ha; Flood; scale of 0 to 100 where 0 is no effect and 100 is complete control; 13 to 15 days
In short: as §1

[5] = test system: kochia (Kochia scoparia); assay: Test A postemergence, visual injury rating
In short: (§2)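 Compounds in non-phytotoxic solvent with surfactant applied as soil spray preemergence, or postemergence to plants 2-10 cm at one- to two-leaf stage, in loam/sand. After approximately 10 days in greenhouse, injury rated visually versus untreated controls, 0 (no effect) to 100 (complete control).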

[6] = test system: wheat (Triticum aestivum); assay: Test A postemergence, visual injury rating
In short: as §2

[7] = test system: ragweed (common ragweed, Ambrosia elatior); assay: Test A postemergence, visual injury rating
In short: as §2

[8] = test system: Italian ryegrass (Lolium multiflorum); assay: Test A postemergence, visual injury rating
In short: as §2

[9] = test system: corn (Zea mays); assay: Test A postemergence, visual injury rating
In short: as §2

[10] = test system: barnyardgrass (Echinochloa crus-galli); assay: Test A postemergence, visual injury rating
In short: as §2

[11] = test system: blackgrass (Alopecurus myosuroides); assay: Test A postemergence, visual injury rating
In short: as §2

[12] = test system: galium (catchweed bedstraw, Galium aparine); assay: Test A postemergence, visual injury rating
In short: as §2

[13] = test system: giant foxtail (Setaria faberii); assay: Test A postemergence, visual injury rating
In short: as §2

[14] = test system: pigweed (Amaranthus retroflexus); assay: Test A postemergence, visual injury rating
In short: as §2

[15] = test system: kochia (Kochia scoparia); assay: Test A preemergence, visual injury rating
In short: as §2

[16] = test system: ragweed (common ragweed, Ambrosia elatior); assay: Test A preemergence, visual injury rating
In short: as §2

[17] = test system: Italian ryegrass (Lolium multiflorum); assay: Test A preemergence, visual injury rating
In short: as §2

[18] = test system: barnyardgrass (Echinochloa crus-galli); assay: Test A preemergence, visual injury rating
In short: as §2

[19] = test system: giant foxtail (Setaria faberii); assay: Test A preemergence, visual injury rating
In short: as §2

[20] = test system: pigweed (Amaranthus retroflexus); assay: Test A preemergence, visual injury rating
In short: as §2

[21] = 31 g ai/ha, 0 to 100 scale, 0 is no effect, 100 is complete control, approximately 10 days
[22] = 125 g ai/ha, 0 to 100 scale, 0 is no effect, 100 is complete control, approximately 10 days
[23] = 31 g ai/ha, 0 to 100 scale, 0 no effect, 100 complete control
[24] = 125 g ai/ha, 0 to 100 scale (0 no effect, 100 complete control)
[25] = 125 g ai/ha, 0 is no effect, 100 is complete control
[26] = 500 g ai/ha, 0 is no effect, 100 is complete control
[27] = 500 g ai/ha, 0 to 100 scale (0 no effect, 100 complete control)
[28] = 31 g ai/ha, 0 to 100 scale (0 no effect, 100 complete control)

N#Cc1cccc(Oc2ncc(Cl)cn2)c1C(=O)CCCCC(F)(F)F [Compound 109]
Plant response rating, Sedge, Umbrella [1]: 0
Plant response rating, Barnyardgrass [2]: 0
Plant response rating, Rice [3]: 0
Plant response rating, Ducksalad [4]: 0
Kochia plant response rating [5, 21]: 0
Kochia plant response rating [5, 22]: 20
Wheat plant response rating [6, 21]: 0
Wheat plant response rating [6, 22]: 0
Ragweed plant response rating [7, 21]: 0
Ragweed plant response rating [7, 22]: 20
Ryegrass, Italian plant response rating [8, 21]: 0
Ryegrass, Italian plant response rating [8, 22]: 0
Corn plant response rating [9, 21]: 10
Corn plant response rating [9, 22]: 20
Barnyardgrass plant response rating [10, 21]: 0
Barnyardgrass plant response rating [10, 22]: 0
Blackgrass plant response rating [11, 21]: 0
Blackgrass plant response rating [11, 22]: 0
Galium plant response rating [12, 21]: 0
Galium plant response rating [12, 22]: 30
Foxtail, Giant plant response rating [13, 21]: 0
Foxtail, Giant plant response rating [13, 22]: 0
Pigweed plant response rating [14, 21]: 20
Pigweed plant response rating [14, 22]: 60
Plant response rating, Kochia [15, 23]: 0
Plant response rating, Kochia [15, 24]: 0
Plant response rating, Ragweed [16, 23]: 0
Plant response rating, Ragweed [16, 24]: 0
Plant response rating, Ryegrass, Italian [17, 23]: 0
Plant response rating, Ryegrass, Italian [17, 24]: 0
Plant response rating, Barnyardgrass [18, 23]: 0
Barnyardgrass plant response rating [18, 24]: 20
Plant response rating, Foxtail, Giant [19, 23]: 0
Plant response rating, Foxtail, Giant [19, 24]: 40
Plant response rating, Pigweed [20, 23]: 0
Plant response rating, Pigweed [20, 24]: 60

CC(=NOC(C)C)c1c(F)cccc1Oc1ncc(Cl)cn1 [Compound 76]
Plant response rating, Sedge, Umbrella [1]: 70
Plant response rating, Barnyardgrass [2]: 0
Plant response rating, Rice [3]: 10
Plant response rating, Ducksalad [4]: 85
Kochia plant response rating [5, 21]: 0
Kochia plant response rating [5, 22]: 0
Wheat plant response rating [6, 21]: 0
Wheat plant response rating [6, 22]: 0
Ragweed plant response rating [7, 21]: 0
Ragweed plant response rating [7, 22]: 0
Ryegrass, Italian plant response rating [8, 21]: 0
Ryegrass, Italian plant response rating [8, 22]: 0
Corn plant response rating [9, 21]: 0
Corn plant response rating (0 to 100 scale) [9, 25]: 0
Barnyardgrass plant response rating [10, 21]: 0
Barnyardgrass plant response rating (0 to 100 scale) [10, 25]: 0
Blackgrass plant response rating [11, 21]: 0
Blackgrass plant response rating (0 to 100 scale) [11, 25]: 0
Galium plant response rating [12, 21]: 0
Galium plant response rating (0 to 100 scale) [12, 25]: 90
Foxtail, Giant plant response rating [13, 21]: 0
Foxtail, Giant plant response rating (0 to 100 scale) [13, 25]: 0
Pigweed plant response rating [14, 21]: 0
Pigweed plant response rating [14, 22]: 30
Plant response rating, Kochia [15, 23]: 0
Kochia plant response rating [15, 24]: 0
Plant response rating, Ragweed [16, 23]: 0
Ragweed plant response rating [16, 24]: 0
Plant response rating, Ryegrass, Italian [17, 23]: 0
Ryegrass, Italian plant response rating [17, 24]: 0
Plant response rating, Barnyardgrass [18, 23]: 0
Barnyardgrass plant response rating [18, 24]: 70
Plant response rating, Foxtail, Giant [19, 23]: 0
Foxtail, Giant plant response rating [19, 24]: 70
Plant response rating, Pigweed [20, 23]: 0
Pigweed plant response rating [20, 24]: 50

CC(CN(C)C(=O)c1c(Br)cccc1Oc1ncc(Cl)cn1)C(F)(F)F (stereo not drawn) [Compound 18]
Plant response rating, Sedge, Umbrella [1]: 0
Plant response rating, Barnyardgrass [2]: 0
Plant response rating, Rice [3]: 0
Plant response rating, Ducksalad [4]: 0
Kochia plant response rating (0 to 100 scale) [5, 25]: 0
Kochia plant response rating (0 to 100 scale) [5, 26]: 10
Wheat plant response rating (0 to 100 scale) [6, 25]: 0
Wheat plant response rating (0 to 100 scale) [6, 26]: 0
Ragweed plant response rating (0 to 100 scale) [7, 25]: 0
Ragweed plant response rating (0 to 100 scale) [7, 26]: 0
Ryegrass, Italian plant response rating (0 to 100 scale) [8, 25]: 0
Ryegrass, Italian plant response rating (0 to 100 scale) [8, 26]: 0
Corn plant response rating (0 to 100 scale) [9, 25]: 0
Corn plant response rating (0 to 100 scale) [9, 26]: 0
Barnyardgrass plant response rating (0 to 100 scale) [10, 25]: 0
Barnyardgrass plant response rating (0 to 100 scale) [10, 26]: 0
Blackgrass plant response rating (0 to 100 scale) [11, 25]: 0
Blackgrass plant response rating (0 to 100 scale) [11, 26]: 0
Galium plant response rating (0 to 100 scale) [12, 25]: 0
Galium plant response rating (0 to 100 scale) [12, 26]: 0
Foxtail, Giant plant response rating (0 to 100 scale) [13, 25]: 0
Foxtail, Giant plant response rating (0 to 100 scale) [13, 26]: 0
Pigweed plant response rating (0 to 100 scale) [14, 25]: 10
Pigweed plant response rating (0 to 100 scale) [14, 26]: 20
Kochia plant response rating [15, 24]: 0
Kochia plant response rating [15, 27]: 10
Ragweed plant response rating [16, 24]: 0
Ragweed plant response rating [16, 27]: 0
Ryegrass, Italian plant response rating [17, 24]: 0
Ryegrass, Italian plant response rating [17, 27]: 0
Barnyardgrass plant response rating [18, 24]: 0
Barnyardgrass plant response rating [18, 27]: 0
Foxtail, Giant plant response rating [19, 24]: 0
Foxtail, Giant plant response rating [19, 27]: 0
Pigweed plant response rating [20, 24]: 10
Pigweed plant response rating [20, 27]: 40

C=C(C)CCOC(=O)c1c(Br)cccc1Oc1ncc(Cl)cn1 [Compound 90]
Plant response rating, Sedge, Umbrella [1]: 60
Plant response rating, Barnyardgrass [2]: 0
Plant response rating, Rice [3]: 0
Plant response rating, Ducksalad [4]: 30
Kochia plant response rating [5, 21]: 30
Kochia plant response rating [5, 22]: 50
Wheat plant response rating [6, 21]: 0
Wheat plant response rating [6, 22]: 0
Ragweed plant response rating [7, 21]: 0
Ragweed plant response rating [7, 22]: 0
Ryegrass, Italian plant response rating [8, 21]: 0
Ryegrass, Italian plant response rating [8, 22]: 0
Corn plant response rating [9, 21]: 0
Corn plant response rating [9, 22]: 10
Barnyardgrass plant response rating [10, 21]: 0
Barnyardgrass plant response rating [10, 22]: 30
Blackgrass plant response rating [11, 21]: 0
Blackgrass plant response rating [11, 22]: 0
Galium plant response rating [12, 21]: 0
Galium plant response rating [12, 22]: 20
Foxtail, Giant plant response rating [13, 21]: 10
Foxtail, Giant plant response rating [13, 22]: 60
Pigweed plant response rating [14, 21]: 10
Pigweed plant response rating [14, 22]: 50
Plant response rating, Kochia [15, 23]: 0
Kochia plant response rating [15, 24]: 0
Plant response rating, Ragweed [16, 23]: 0
Ragweed plant response rating [16, 24]: 0
Plant response rating, Ryegrass, Italian [17, 23]: 0
Ryegrass, Italian plant response rating [17, 24]: 0
Plant response rating, Barnyardgrass [18, 23]: 0
Barnyardgrass plant response rating [18, 24]: 40
Plant response rating, Foxtail, Giant [19, 23]: 10
Foxtail, Giant plant response rating [19, 24]: 70
Plant response rating, Pigweed [20, 23]: 0
Pigweed plant response rating [20, 24]: 0

N#CC(CCCCC(F)(F)F)c1ccccc1Oc1ncc(Cl)cn1 (stereo not drawn) [Compound 145]
Plant response rating, Sedge, Umbrella [1]: 100
Plant response rating, Barnyardgrass [2]: 50
Plant response rating, Rice [3]: 30
Plant response rating, Ducksalad [4]: 100
Kochia plant response rating [5, 28]: 70
Kochia plant response rating [5, 22]: 90
Wheat plant response rating [6, 28]: 10
Wheat plant response rating [6, 22]: 30
Ragweed plant response rating [7, 28]: 10
Ragweed plant response rating [7, 22]: 20
Ryegrass, Italian plant response rating [8, 28]: 10
Ryegrass, Italian plant response rating [8, 22]: 40
Corn plant response rating [9, 28]: 30
Corn plant response rating [9, 22]: 50
Barnyardgrass plant response rating [10, 28]: 30
Barnyardgrass plant response rating [10, 22]: 80
Blackgrass plant response rating [11, 28]: 40
Blackgrass plant response rating [11, 22]: 60
Galium plant response rating [12, 28]: 40
Galium plant response rating [12, 22]: 80
Foxtail, Giant plant response rating [13, 28]: 50
Foxtail, Giant plant response rating [13, 22]: 70
Pigweed plant response rating [14, 28]: 90
Pigweed plant response rating [14, 22]: 100
Plant response rating, Kochia [15, 23]: 0
Plant response rating, Kochia [15, 24]: 40
Plant response rating, Ragweed [16, 23]: 0
Plant response rating, Ragweed [16, 24]: 30
Plant response rating, Ryegrass, Italian [17, 23]: 10
Plant response rating, Ryegrass, Italian [17, 24]: 50
Plant response rating, Barnyardgrass [18, 23]: 40
Plant response rating, Barnyardgrass [18, 24]: 80
Plant response rating, Foxtail, Giant [19, 23]: 90
Plant response rating, Foxtail, Giant [19, 24]: 100
Plant response rating, Pigweed [20, 23]: 100
Plant response rating, Pigweed [20, 24]: 100

Source: patent US11053204B2, “Pyrimidinyloxy benzene derivatives as herbicides” (FMC Corporation, priority 2015, dated 2021)
